Measured values as given in patent US9815851B2, “Pyrrolo carboxamides as modulators of orphan nuclear receptor RAR-related orphan receptor-gamma (RORγ, NR1F3) activity and for the treatment of chronic inflammatory and autoimmune diseases” (PHENEX PHARMACEUTICALS AG, priority 2011, dated 2017).
Read-outs that look alike come from different tables or passages of the source.

Assays:
RORγ = target: T1, RORγ (UniProt P51449); experiment: RORγ Gal4 Reporter Gene Assay in 293T cells (firefly and renilla luciferase); format: cell-based, human
T1 sequence (P51449 1-518): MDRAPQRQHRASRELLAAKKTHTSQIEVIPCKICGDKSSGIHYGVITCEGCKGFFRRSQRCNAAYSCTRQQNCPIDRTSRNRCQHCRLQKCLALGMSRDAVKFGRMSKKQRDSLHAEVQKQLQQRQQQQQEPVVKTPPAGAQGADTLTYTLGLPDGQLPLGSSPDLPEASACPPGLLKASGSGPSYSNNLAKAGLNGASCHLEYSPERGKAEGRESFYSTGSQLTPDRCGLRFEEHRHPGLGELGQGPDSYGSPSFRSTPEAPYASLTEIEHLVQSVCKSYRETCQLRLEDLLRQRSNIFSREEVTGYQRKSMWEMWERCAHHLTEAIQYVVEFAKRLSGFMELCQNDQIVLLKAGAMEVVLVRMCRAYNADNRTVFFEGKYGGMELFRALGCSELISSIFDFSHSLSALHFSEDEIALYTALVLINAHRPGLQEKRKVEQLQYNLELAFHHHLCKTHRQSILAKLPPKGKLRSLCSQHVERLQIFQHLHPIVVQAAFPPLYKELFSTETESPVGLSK

[1] = target: T2, RORγ ligand binding domain (LBD) (Homo sapiens, UniProt P51449); experiment: TR-FRET Activity Assay (ligand sensing, RORγ-LBD / coactivator peptide interaction, LANCE); format: biochemical
T2 construct: made in house; host or cells: E. coli BL-21 (BL3), vector pDEST15
T2 sequence (P51449 269-508 limits assumed): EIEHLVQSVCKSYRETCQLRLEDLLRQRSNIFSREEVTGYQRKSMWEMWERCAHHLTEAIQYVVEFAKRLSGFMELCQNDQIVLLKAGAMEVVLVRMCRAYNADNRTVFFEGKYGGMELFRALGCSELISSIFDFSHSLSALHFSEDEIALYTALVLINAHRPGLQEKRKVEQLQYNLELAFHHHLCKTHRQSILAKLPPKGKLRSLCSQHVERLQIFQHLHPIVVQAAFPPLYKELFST

[2] = second value of the cell, Gal4 reporter gene assay in 293T cells, firefly luciferase
[3] = third value of the cell, Gal4 reporter gene assay in 293T cells, renilla normalised luciferase
[4] = first value of the cell FRET/FF/REN, TR-FRET activity assay, read-out: pIC50 (FRET) (converted)

Structure (SMILES)	pIC50 (FF) (RORγ; [2])	pIC50 (REN) (RORγ; [3])	IC50 [1, 4] [µM]	pIC50 (FF) (RORγ)	pIC50 (REN) (RORγ)	IC50 [1] [µM]
Cc1c(C(=O)NCC(C)(C)O)cc(-c2ccc(S(=O)(=O)NC(C)(C)C)c(C(C)(C)C)c2)n1CC1CCCCC1 [9/8]	7.0	7.1	0.631	–	–	–
Cc1c(C(=O)NC2COC2)cc(-c2cc(C(C)(C)C)c3c(c2)C(C)(C)CC(=O)N3C)n1CC1CCCCC1 [1/19]	7.0	7.1	1	–	–	–
COC(C)(C)CNC(=O)c1cc(-c2cc(C(C)(C)C)c3c(c2)C2(CCO3)CC2)n(CC2CCCCC2)c1C [1/97]	–	–	–	6.6/7.1/7.0	6.6/7.1/7.0	0.251
Cc1c(C(=O)NC2CCOCC2)cc(-c2ccc(S(=O)(=O)N(CC(F)(F)F)C(C)(C)C)c(C(C)(C)C)c2)n1CC1CCCCC1 [17/1]	–	–	–	5.9/8.0/7.9	5.9/8.0/7.9	1.26
COC(C)(C)CNC(=O)c1cc(-c2cc(C(C)(C)C)cc(C3(C)CC3)c2)n(CC2CCCCC2)c1C [17/68]	–	–	–	6.8/7.4/7.5	6.8/7.4/7.5	0.158
CC(C)(C)NS(=O)(=O)c1ccc(-c2cc(C(=O)NC3CCOCC3)c(CF)n2CC2CCCCC2)cc1C(C)(C)C [17/118]	6.3	6.5	10	–	–	–
CCC(C)(C)NC(=O)c1cc(-c2cc(C(=O)NC3COC3)c(C)n2CC2CCCCC2)cc(C(F)(F)F)c1 [15/3]	7.0	7.1	0.398	–	–	–
Cc1c(C(=O)NC2COC2)cc(-c2cc(C(C)(C)C)cc(C(C)(C)C)c2)n1S(=O)(=O)N1CCC(C)CC1 [7/1]	6.7	6.8	0.316	–	–	–
Cc1c(C(=O)NC2CCOCC2)cc(-c2ccc(S(=O)(=O)NC(C)(C)C)c(C(F)(F)F)c2)n1CC1CC(F)(F)C1 [17/133]	6.3	6.3	1.26	–	–	–
Cc1c(C(=O)NCC(C)(C)O)cc(-c2cc(C(C)(C)C)cc(C(C)(C)C)c2OC(F)F)n1CC1CCCCC1 [17/191]	–	–	–	5.9/7.0/6.9	5.9/7.0/6.9	1.26
Cc1c(C(=O)NCCOC(C)C)cc(-c2cc(C(C)(C)C)cc(C(C)(C)C)c2)n1CC1CCCCC1 [1/62]	–	–	–	6.5/6.4/6.3	6.5/6.4/6.3	0.316
Cc1c(C(=O)NC2(CO)CC2)cc(-c2cc(C(C)(C)C)cc(C(C)(C)C)c2)n1CC1CCCCC1 [1/58]	–	–	–	6.2/6.2/6.2	6.2/6.2/6.2	0.631
Cc1c(C(=O)N[C@H]2C[C@H](C(=O)O)C2)cc(-c2cc(C(C)(C)O)cc3ccccc23)n1CC1CCCCC1 [17/187]	< 4.7	< 4.7	15.8	–	–	–
Cc1c(C(=O)NCC(C)(C)O)cc(-c2cc(C(=O)NC(C)C)cc(C(C)(C)C)c2)n1CC1CCCCC1 [15/9]	6.9	7.0	1	–	–	–
Cc1c(C(=O)NCC2CC(C(=O)O)C2)cc(-c2cc(C(C)(C)O)cc(C3(C)CC3)c2)n1CC1CCCCC1 (stereo not drawn) [17/246]	6.1	6.2	3.98	–	–	–
CNC(=O)C(C)(C)CCNC(=O)c1cc(-c2ccc(S(=O)(=O)NC(C)(C)C)c(C(F)(F)F)c2)n(CC2CCCCC2)c1C [17/136]	6.6	6.7	0.794	–	–	–
Cc1c(C(=O)NCCN2CCN(S(C)(=O)=O)CC2)cc(-c2cc(C(C)(C)C)cc(C3(C)CC3)c2)n1CC1CCCCC1 [17/347]	6.5	6.5	0.398	–	–	–

Structure (SMILES)	pIC50 (FF) (RORγ; [2])	pIC50 (REN) (RORγ; [3])	IC50 [1, 4] [µM]	pIC50 (FF) (RORγ)	pIC50 (REN) (RORγ)	IC50 [1] [µM]
Cc1c(C(=O)NC2COC2)cc(-c2cc(C(=O)NC(C)(C)C)nc(C(C)(C)C)c2)n1CC1CCCCC1 [Example 6, N,6-Di-tert-butyl-4-(1-(cyclohexylmethyl)-5-methyl-4-(oxetan-3-ylcarbamoyl)-1H-pyrrol-2-yl)picolinamide]	–	–	–	6.2/6.3/6.4	6.2/6.3/6.4	0.631
Cc1c(C(=O)NC2CCOCC2)cc(-c2cc(Cl)c(S(N)(=O)=O)c(C(F)(F)F)c2)n1CC1CCCCC1 [19/1]	6.8	6.8	0.501	–	–	–
Cc1c(C(=O)N[C@H]2C[C@H](C(=O)O)C2)cc(-c2cc(C(=O)NC(C)(C)C)cc(C3(C)CC3)c2)n1CC1CCCCC1 [17/339]	7.6	7.7	1.26	–	–	–
Cc1c(C(=O)NC2CCOCC2)cc(-c2ccc(S(=O)(=O)NC(C)(C)C)c(C(F)(F)F)c2F)n1CC1CCCCC1 [17/231]	7.5	7.7	0.251	–	–	–
Cc1c(C(=O)NCC2(O)CCSCC2)cc(-c2cc(C(C)(C)C)c3c(c2)C2(CCO3)CC2)n1CC1CCCCC1 [17/37]	7.1	7.1	1.26	–	–	–
Cc1c(C(=O)NCC2(O)CCS(=O)(=O)CC2)cc(-c2cc(C(C)(C)C)c3c(c2)C2(CCO3)CC2)n1CC1CCCCC1 [17/81]	–	–	–	6.2/7.1/7.1	6.2/7.1/7.1	0.631
Cc1c(C(=O)NCC(C)(C)C(=O)N(C)C)cc(-c2cc(C(C)(C)C)c3c(c2)C2(CCO3)CC2)n1CC1CCCCC1 [11/2]	6.9	6.9	0.251	–	–	–
Cc1c(C(=O)NCCc2nn[nH]n2)cc(-c2ccc(S(=O)(=O)NC(C)(C)C)c(C(C)(C)O)c2)n1CC1CCCCC1 [17/336]	< 4.7	< 4.7	1	–	–	–
COC(=O)[C@H]1C[C@H](NC(=O)c2cc(-c3cc(C(C)(C)C)cc(C4(C)CC4)c3)n(CC3CCCCC3)c2C)C1 [17/154]	7.2	7.3	0.316	–	–	–
CC(C)(O)CNC(=O)c1cc(-c2ccc(S(=O)(=O)NC(C)(C)C)c(C(C)(C)C)c2)n(CC2CCCCC2)c1C(F)(F)F [1/26]	–	–	–	5.0/<4.7/<4.7	5.0/<4.7/<4.7	10
Cc1c(C(=O)NC2CCOCC2)cc(-c2ccc(S(=O)(=O)N3CCCC3(C)C)c(C(F)(F)F)c2)n1CC1CCCCC1 [17/84]	7.2	7.2	> 20	–	–	–
Cc1c(C(=O)NC2CCOCC2)cc(-c2cc(C(=O)NCC(F)(F)F)cc(C3(C)CC3)c2)n1CC1CCCCC1 [17/352]	7.5	7.5	0.631	–	–	–
Cc1c(C(=O)NC2CCOCC2)cc(-c2ccc(S(N)(=O)=O)c(C(F)(F)F)c2)n1CC1CCCCC1 [Example 19, 1-(Cyclohexylmethyl)-2-methyl-5-(4-sulfamoyl-3-(trifluoromethyl)phenyl)-N-(tetrahydro-2H-pyran-4-yl)-1H-pyrrole-3-carboxamide]	6.6	6.4	12.6	–	–	–
CCNC(=O)c1cc(-c2ccc(S(=O)(=O)NC(C)(C)C)c(C(C)(C)C)c2)n(CC2CCCCC2)c1C [17/98]	6.8	6.9	0.316	–	–	–
CC(=O)N1CC(NC(=O)c2cc(-c3cc(C(C)(C)C)cc(C(C)(C)C)c3)n(CC3CCCCC3)c2C)C1 [Example 5, N-(1-Acetylazetidin-3-yl)-1-(cyclohexylmethyl)-5-(3,5-di-tert-butylphenyl)-2-methyl-1H-pyrrole-3-carboxamide]	7.0	7.2	0.501	–	–	–
Cc1c(C(=O)NC2CC23CCOCC3)cc(-c2ccc(S(=O)(=O)NC(C)(C)C)c(C(C)(C)C)c2)n1CC1CCCCC1 (stereo not drawn) [17/207]	7.9	8.0	0.501	–	–	–
